What follows are molecules tested against Carbonic anhydrase 9 (Homo sapiens, UniProt Q16790) (assay: Inhibition of human recombinant carbonic anhydrase 9 by stopped-flow CO2 hydration assay).

Structure (SMILES)	Ki
CC(=O)OC[C@H]1O[C@@H](S(=O)(=O)NCCCOS(N)(=O)=O)[C@H](OC(C)=O)[C@@H](OC(C)=O)[C@@H]1OC(C)=O	215 nM
NS(=O)(=O)O[C@@H]1CCN(S(=O)(=O)[C@@H]2O[C@H](CO)[C@@H](O)[C@H](O)[C@H]2O)C1	2 nM
COC(=O)[C@@H]1C[C@@H](OS(N)(=O)=O)CN1S(=O)(=O)[C@@H]1O[C@H](COC(C)=O)[C@@H](OC(C)=O)[C@H](OC(C)=O)[C@H]1OC(C)=O	2 nM
NS(=O)(=O)OCCCNS(=O)(=O)[C@@H]1O[C@H](CO)[C@@H](O)[C@H](O)[C@H]1O	2 nM
CC(=O)OC[C@H]1O[C@@H](S(=O)(=O)N2CC[C@@H](OS(N)(=O)=O)C2)[C@H](OC(C)=O)[C@@H](OC(C)=O)[C@@H]1OC(C)=O	2 nM

The molecules below were run against Carbonic anhydrase 1 (Homo sapiens, UniProt P00915) (assay: Inhibition of human recombinant carbonic anhydrase 1 by stopped-flow CO2 hydration assay).
Sequence of Carbonic anhydrase 1 (P00915 whole entry): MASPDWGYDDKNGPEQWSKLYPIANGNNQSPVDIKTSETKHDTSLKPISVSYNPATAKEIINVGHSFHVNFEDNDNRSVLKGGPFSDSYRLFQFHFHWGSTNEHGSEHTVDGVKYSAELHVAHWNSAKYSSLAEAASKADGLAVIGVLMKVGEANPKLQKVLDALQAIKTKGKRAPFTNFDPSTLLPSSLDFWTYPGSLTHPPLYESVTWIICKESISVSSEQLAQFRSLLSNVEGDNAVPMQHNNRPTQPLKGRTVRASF

Structure (SMILES)	Ki
COC(=O)[C@H](CS(N)(=O)=O)NS(=O)(=O)[C@@H]1O[C@H](COC(C)=O)[C@@H](OC(C)=O)[C@H](OC(C)=O)[C@H]1OC(C)=O	> 20000 nM
NS(=O)(=O)OC1CCN(S(=O)(=O)[C@@H]2O[C@H](CO)[C@@H](O)[C@H](O)[C@H]2O)CC1	> 20000 nM
